US9925170B2, “Methods of adipolysis and compositions useful therein” (priority 2015, dated 2018)

How the values were obtained:
Human mature adipocytes = test system: Human mature adipocytes
Experimental: Human pre-adipocytes (Lonza, Allendale, N.J.) were differentiated into mature adipocytes according to the supplier's instructions. Mature adipocytes in maintenance medium (Zen-Bio, Research Triangle Park, N.C.) were treated with different statins (Sigma, St. Louis, Mo.) for 7 days over a range of concentrations. Cell viability was measured at Day 1, 3, 5, and 7 using the ALAMARBLUE® assay (Invitrogen, Carlsbad, Calif.).

subcutaneous fat layer = conditions: 25 mg/kg intraperitoneal, 28 consecutive days (FIG. 6)
Experimental: Three untreated mice were used as reference animals. On Day 29, all animals were sacrificed and histopathological examination of the dorsal lumbar skin was performed. […] The severity of subcutaneous fat atrophy was scored on a scale ranging from normal (score of “0”) to severe (score of “4”).

[1] = test system: subcutaneous adipose tissue; assay: Daily topical or intraperitoneal administration in mice, histopathology of mid-scapular skin; assay type: in vivo, Female BALB/cAnNCrl mice
Experimental: Female BALB/cAnNCrl mice were divided into five groups of three mice/group and seven groups of eight mice/group. Mice in Group 1 were age-matched, untreated pre-study reference animals, and mice in Group 2 were age-matched, untreated Day 29 reference animals. […] Mid-scapular skin was collected from each animal and histopathological examination was performed to determine the effects of the test articles on subcutaneous adipose deposition and skin thickness.

[2] = intraperitoneal 25 mg/kg, 28 days

| SMILES | dose dependence of cytotoxic effect (Human mature adipocytes) | fat layer atrophy in skin sections (subcutaneous fat layer) | atrophy of subcutaneous adipose tissue [1, 2] | atrophy of subcutaneous adipose tissue ([1]; topical 0.5%, 28 days) | atrophy of subcutaneous adipose tissue ([1]; topical 2.5%, 7 days) | atrophy of subcutaneous adipose tissue ([1]; topical 2.5%, 28 days) | atrophy of subcutaneous adipose tissue ([1]; topical 0.5%, 7 days) |
| --- | --- | --- | --- | --- | --- | --- | --- |
| CC(C)n1c(/C=C/C(O)CC(O)CC(=O)O)c(-c2ccc(F)cc2)c2ccccc21 (stereo not drawn) [fluvastatin] | dose-dependent cytotoxic effect | – | – | – | – | – | – |
| CC[C@H](C)C(=O)O[C@H]1C[C@@H](C)C=C2C=C[C@H](C)[C@H](CC[C@@H]3C[C@@H](O)CC(=O)O3)[C@H]21 [lovastatin] | – | significant fat layer atrophy | present in skin of all mice | Only one mouse | present in all mice | present in all mice | – |
| Cc1ccc(N(CC2=NCCN2)c2cccc(O)c2)cc1 [phentolamine] | – | – | present in skin of all mice | – | present in mice | in one mouse | present in mice |
| CC(=O)[C@H]1CC[C@H]2[C@@H]3CC=C4C[C@@H](O)CC[C@]4(C)[C@H]3CC[C@]12C [pregnenolone] | – | – | present in skin of all mice | present in a one mouse | – | – | – |
